Entries after “also recorded” stand apart in the source; their conditions may differ.
Legend:
Assay type in all cases: cell-based
[1] = system: BxPC3; experiment: G2/M cell cycle arrest after MMC treatment (flow cytometry); settings: BxPC3 (control line); MMC 2 hours, analyzed 48 hours later; concentrations as high as
Experimental: (§1) Cells were cultured in 25 cm^2 flasks and treated with MMC for two hours. Cells were washed with PBS and incubated with normal tissue culture medium for 48 hours.
(§2) Cells were obtained by trypsinization and resuspended in 3.7% paraformaldehyde in PBS, stained with Hoechst 33258 (Sigma), incubated at 4° C. for 10 min and analyzed using a flow cytometer. A “G2/M arrest” was defined as a twofold increase of the percentage of cells in G2/M, as compared to untreated cells.
(§3) The methods used to investigate cell “survival” upon treatment with MMC and cisplatin sum the effects of cell death, slow growth and the occurrence of a cell cycle arrest. To determine the potential contribution of an arrest, we analyzed cell cycle distributions of DNA content after MMC treatment. Six pancreatic cancer cell lines (BxPC3, MiaPaCa2, Su86.86, PL11, Hs766T and CAPAN1) and one HNSCC cell line (FaDu) were analyzed 48 hours after MMC treatment for 2 hours; a G2/M arrest was defined as a twofold increase of the fraction of cells containing 4N DNA content, as compared to untreated cells (FIG. 4). Hs766T arrested in G2/M at a MMC concentration of 100 nM, PL11 at 100 nM, CAPAN1 at 200 nM and FaDu at 500 nM, whereas control pancreatic cancer cell lines MiaPaCa2, Su86.86 and BxPC3 […] at MMC concentrations as high as 2 μM.

[2] = system: CAPAN1; experiment: as above; settings: MMC 2 hours, analyzed 48 hours later, arrest = twofold increase of 4N fraction vs untreated
Experimental: as §1, §2, §3

[3] = system: FaDu; experiment: as above; settings: MMC 2 hours, analyzed 48 hours later, arrest = twofold increase of 4N fraction vs untreated
Experimental: as §1, §2, §3

[4] = system: Hs766T; experiment: as above; settings: MMC 2 hours, analyzed 48 hours later, arrest = twofold increase of 4N fraction vs untreated
Experimental: as §1, §2, §3

[5] = system: MiaPaCa2; experiment: as above; settings: MiaPaCa2 (control line); MMC 2 hours, analyzed 48 hours later; concentrations as high as
Experimental: as §1, §2, §3

[6] = system: PL11; experiment: as above; settings: MMC 2 hours, analyzed 48 hours later, arrest = twofold increase of 4N fraction vs untreated
Experimental: as §1, §2, §3

[7] = system: Su86.86; experiment: as above; settings: Su86.86 (control line); MMC 2 hours, analyzed 48 hours later; concentrations as high as
Experimental: as §1, §2, §3

[8] = system: CAPAN1 (BRCA2-mutated); experiment: Survival study, Picogreen DNA quantitation
Experimental: (§4) Cells were incubated for a period of time long enough to allow non-treated cells to reach at least a threefold increase in fluorescence as compared to day 1 (3-7 days). Medium was changed every 48 hours. Cells were washed with PBS, and lysed in 100 μL sterile water. After 1 hour, 100 μl 0.5% Picogreen (Molecular Probes, Eugene, Oreg.) in tris-EDTA buffer was added to each well. After 45 minutes, wells were read in a fluorometer. Survival was calculated as a percentage; the wells without drugs were considered as 100 percent. Each experiment was done in duplicate; at least six experiments per cell line per concentration were performed.
(§5) The FA-defective pancreatic cancer cell lines Hs766T (FANCG-mutated), PL11 (FANCC-mutated) and CAPAN1 (BRCA2-mutated) and FA-proficient cell lines Su86.86 and MiaPaCa2 were treated with various concentrations of either MMC or cisplatin, and incubated in 96-well plates. Relative cell numbers were determined by measurement of doublestranded DNA content using Picogreen; wells containing no compound were used as controls. […] The FA-defective cell lines

[9] = system: Hs766T (FANCG-mutated); experiment: Survival study, Picogreen DNA quantitation
Experimental: as §4, §5

[10] = system: PL11 (FANCC-mutated); experiment: Survival study, Picogreen DNA quantitation
Experimental: as §4, §5

[11] = system: FaDu (FA-defective); experiment: Survival study, Picogreen DNA quantitation
[12] = system: CAPAN1; experiment: Survival study, manual (hemacytometer) cell counts; settings: manual cell counts after 3-4 population doublings (FIG. 3C)
Experimental: (§6) Cell counts: 1×10^5 cells were plated in tissue culture flasks (25 cm^2). The next day, the medium was substituted with MMC-containing medium (range 0-4.5 μM). Cells were counted after 3-4 population doublings (4-7 days) using a hemacytometer. Four experiments per cell line/concentration were done.
(§7) To confirm the results obtained with the Picogreen assay, we also assessed sensitivity to MMC of the cell lines MiaPaCa2, Su86.86, CAPAN1 and Hs766T with manual (hemacytometer) cell counts. This assay confirmed their hypersensitivity to MMC (FIG. 3C). The FA-defective HNSCC cell line FaDu was also hypersensitive to MMC (FIG. 3D), but not to cisplatin (FIG. 3E), as compared to the FA-proficient HNSCC cell lines A-253 and Detroit 562.

[13] = system: Hs766T; experiment: Survival study, manual (hemacytometer) cell counts; settings: manual cell counts after 3-4 population doublings (FIG. 3C)
Experimental: as §6, §7

[14] = system: Su86.86; experiment: Survival study, Picogreen DNA quantitation; settings: compared to MiaPaCa2, less sensitive than CAPAN1 and PL11
Experimental: as §4, §5

[15] = 3-7 days, compared to MiaPaCa2 and Su86.86 (FIG. 3A)

CO[C@@]12[C@H](COC(N)=O)C3=C(C(=O)C(C)=C(N)C3=O)N1C[C@@H]1N[C@@H]12 [MMC, mitomycin C]
MMC concentration at which cells arrested in G2/M [1]: 2 µM | MMC concentration at which cells arrested in G2/M [2]: 200 nM | MMC concentration at which cells arrested in G2/M [3]: 500 nM | MMC concentration at which cells arrested in G2/M [4]: 100 nM | MMC concentration at which cells arrested in G2/M [5]: 2 µM | MMC concentration at which cells arrested in G2/M [6]: 100 nM | MMC concentration at which cells arrested in G2/M [7]: 2 µM | Sensitivity to MMC [8, 15]: hypersensitive; also recorded: increased sensitivity | Sensitivity to MMC [9, 15]: hypersensitive; also recorded: increased sensitivity | Sensitivity to MMC [10, 15]: hypersensitive; also recorded: increased sensitivity | Sensitivity to MMC ([11]; compared to A-253 and Detroit 562 (FIG. 3D)): hypersensitive | Sensitivity to MMC [12]: hypersensitivity | Sensitivity to MMC [13]: hypersensitivity

N.N.[Cl][Pt][Cl] [cisplatin]
Sensitivity to cisplatin ([8]; 3-7 days (FIG. 3B)): hypersensitive | Sensitivity to cisplatin ([9]; compared to MiaPaCa2, less sensitive than CAPAN1 and PL11): increased sensitivity | Sensitivity to cisplatin ([10]; 3-7 days (FIG. 3B)): hypersensitive | Sensitivity to cisplatin [14]: increased sensitivity | Hypersensitive to cisplatin ([11]; compared to A-253 and Detroit 562 (FIG. 3E)): not
